Measurements reported in ChEMBL document CHEMBL3593244, “Design, synthesis and preliminary bioactivity evaluations of substituted quinoline hydroxamic acid derivatives as novel histone deacetylase (HDAC) inhibitors” (Bioorg Med Chem, 2015).

What was measured:
[1] = molecular target: Histone deacetylase (HDAC1 and HDAC2) (Homo sapiens, UniProt Q13547+Q92769); test: Inhibition of HDAC1/2 in human HeLa cell nuclear extracts preincubated for 5 mins followed by substrate addition measured after 0.5 hrs by Color de Lys assay; assay type: cell-based
K562 = test: cells; assay type: functional, cell-based; settings: Homo sapiens, K562, 48 h
Description: Cytotoxicity against human K562 cells assessed as inhibition of cell proliferation after 48 hrs by MTT assay

PC-3 = test: cells; assay type: functional, cell-based; settings: Homo sapiens, PC-3, 48 h
Description: Cytotoxicity against human PC3 cells assessed as inhibition of cell proliferation after 48 hrs by MTT assay

A549 = test: cells; assay type: functional, cell-based; settings: Homo sapiens, A549, 48 h
Description: Cytotoxicity against human A549 cells assessed as inhibition of cell proliferation after 48 hrs by MTT assay

MDA-MB-231 = test: Cytotoxicity against human MDA-MB-231 cells assessed as inhibition of cell proliferation after 48 hrs by MTT assay; assay type: functional, cell-based; settings: MDA-MB-231, 48 h

SMILES | IC50 [1] | further results
O=C(CCCCCC(=O)NCc1cc(C(=O)NCc2ccccc2)c2ccccc2n1)NO | 399 nM | –
O=C(CCCCCCC(=O)NCc1ccc2ccccc2n1)NO | 678 nM | –
O=C(CCCCC(=O)NCc1cc(C(=O)NCc2ccccc2)c2ccccc2n1)NO | > 1000 nM | –
CNC(=O)c1cc(CNC(=O)CCCCCCC(=O)NO)nc2ccccc12 | > 1000 nM | –
O=C(CCCCCCCC(=O)NCc1cc(C(=O)NCc2ccccc2)c2cc(Br)ccc2n1)NO | > 1000 nM | –
O=C(CCCCCCCC(=O)NCc1cc(C(=O)NCc2ccccc2)c2ccccc2n1)NO | > 1000 nM | –
O=C(CCCCCCC(=O)NCc1cc(C(=O)Nc2ccccc2)c2ccccc2n1)NO | 562 nM | –
O=C(CCCC(=O)NCc1cc(C(=O)NCc2ccccc2)c2ccccc2n1)NO | > 1000 nM | –
O=C(CCCCC(=O)NCc1ccc2ccccc2n1)NO | > 1000 nM | –
O=C(CCCCCC(=O)NCc1ccc2ccccc2n1)NO | 266 nM | –
O=C(CCCCCC(=O)NCc1cc(C(=O)Nc2ccccc2)c2cc(Br)ccc2n1)NO | 196 nM | –
CCCCNC(=O)c1cc(CNC(=O)CCCCCCC(=O)NO)nc2ccccc12 | > 1000 nM | –
O=C(CCCCCC(=O)NCc1ccc2cc(Cl)ccc2n1)NO | 120 nM | IC50 (K562): 3390 nM; IC50 (PC-3): 9130 nM; IC50 (A549): 2710 nM; IC50 (MDA-MB-231): 1840 nM
O=C(CCCCCCC(=O)NCc1ccc2cc(Br)ccc2n1)NO | 146 nM | –
O=C(CCCCCC(=O)NCc1cc(C(=O)NCc2ccccc2)c2cc(-c3ccccc3)ccc2n1)NO | 341 nM | –
CCCCNC(=O)c1cc(CNC(=O)CCCCCC(=O)NO)nc2ccccc12 | 444 nM | –
O=C(CCCCCC(=O)NCc1ccc2cc(-c3ccccc3)ccc2n1)NO | 152 nM | –
O=C(CCCCCCC(=O)NCc1cc(C(=O)NCc2ccccc2)c2cc(Br)ccc2n1)NO | > 1000 nM | –
O=C(CCCC(=O)NCc1ccc2ccccc2n1)NO | > 1000 nM | –
O=C(CCCCCC(=O)NCc1cc(C(=O)NCc2ccccc2)c2cc(Br)ccc2n1)NO | 343 nM | –
CNC(=O)c1cc(CNC(=O)CCCCCC(=O)NO)nc2ccccc12 | 642 nM | –
O=C(CCCCCCC(=O)NCc1cc(C(=O)NCc2ccccc2)c2ccccc2n1)NO | 780 nM | –
O=C(CCCCCC(=O)NCc1ccc2cc(I)ccc2n1)NO | 132 nM | IC50 (K562): 2450 nM; IC50 (PC-3): 8480 nM; IC50 (A549): 2580 nM; IC50 (MDA-MB-231): 1410 nM
O=C(CCCCCCC(=O)NCc1cc(C(=O)Nc2ccccc2)c2cc(Br)ccc2n1)NO | > 1000 nM | –
O=C(CCCCCC(=O)NCc1ccc2cc(F)ccc2n1)NO | 155 nM | –
O=C(CCCCCC(=O)NCc1cc(C(=O)Nc2ccccc2)c2ccccc2n1)NO | 301 nM | –
O=C(CCCCCC(=O)NCc1ccc2cc(Br)ccc2n1)NO | 85 nM | IC50 (K562): 4860 nM; IC50 (PC-3): 9260 nM; IC50 (A549): 3890 nM; IC50 (MDA-MB-231): 900 nM
